The values that follow come from patent US5242912A, “Cyclic anthranilic acid derivatives and process of preparing the same” (Kyorin Pharmaceutical Co., Ltd., priority 1989, dated 1993).

Structures are written as SMILES.

For assay [1], the system named is vascular permeability. The assay can be described thus: Inhibition of increased vascular permeability (acetic acid i.p., Evans blue dye leakage). Conditions: 100 mg/kg p.o., N = 9. Format: in vivo, Male ddy mice. Here is the method:
Inhibition of increased vascular permeability
Male ddy mice (6 weeks of age) were used in this experiment. Example 9 compound suspended in 5% gum arabic solution was administered p.o., 45 minutes before the i.v. injection of 1.0% Evans blue solution (0.1 ml/10 g B.W.). Immediately after the i.v. injection, 1.0% acetic acid solution was administered i.p. (0.1 ml/10 g B.W.). The mice were killed 30 minutes after the acetic acid injection. Peritoneal exudate was collected by washing out the peritoneal cavity with physiological saline and centrifuged at 3,000 r.p.m. After the centrifugation, spectrophotometry of the supernatant was measured at 630 nm. Results were expressed as dye leakage and percent inhibition.

Assay [2] addresses Bovine serum albumin (Bos taurus, UniProt P02769). The assay can be described thus: biochemical.
Method: Inhibitory action against thermal denaturation of protein
Bovine serum albumin was dissolved into 1/15M phosphoric acid buffer solution, which was then adjusted to 0.7%. After adding the solution of the present invention compound thereto, it was heated at 65° C. for 7-8 minutes. After cooled, the absorbance at 660 nm was measured, compared with the absorbance of the reference to derive the inhibitory rate and then the concentration necessary to inhibit 50% was obtained.
The test system of assay [3] is bone resorption. The experiment in a line: Inhibitory action against bone resorption (45Ca release from embryo front arm bone, IL-1β). It is filed as cell-based. Conditions: Rattus norvegicus; 25 μg/ml, with interleukin-1β, 72 hours; read-out: Inhibitory rate against bone resorption (%). As for the experimental part:
Inhibitory action against bone resorption
According to Raisz et al method (J. Clin. Invest., 155, 103 (1965)), bone piece of front arm of […] labelled with radioactive calcium (^45 Ca) was prepared in order to measure bone resorption. That is, the radioactive calcium (^45 CaCl2; 200 μCi) was injected under the skin to the back of rats in the 17th day of pregnancy and two days later they were killed with exsanguination by cutting of the carotid artery thereof. After the embryos were picked up and washed with sterilized phosphated buffer solution, the bone of front arm was taken out, which was then rendered free of the attached muscle and cartilage of the both ends, and said piece of bone was cultivated in the culture medium of BGJb.
Next, according to the method of Tsuda et al (J. Bone Miner. Metab., 1, 207 (1986)), the effect of the present invention compound against the bone resorption was determined, which are described as follows.
The piece of bone was put on a milipore-filter, and was pre-cultivated, in a well with 24 holes plate accomodating 0.6 ml culture medium of BGJb, at 37° C. and under 5% carbon dioxide. After the precultivation for 24 hours, said bone with the filter were transferred into a test culture medium added with interleukin-1β (1L-1β) or with both 1L-1β and drugs and the cultivation was continued. After 72 hours cultivation in said test culture medium, 0.3 ml of the supernatant was taken out and ^45 Ca released from the piece of bone was determined. After the piece of bone was immersed in 0.3 ml of 1N hydrochloric acid for more than 1.5 hours, 10 ml of ACSII was added thereto and the radioactivity was determined. Furthermore, the activity of bone resorption was represented by the ratio (percentage) of ^45 Ca released in the supernatant of cultivation to the total radioactivity which had been contained in the piece of bone (the sum of radioactivities in the piece of bone and the supernatant of cultivation). […]

Sequence of Bovine serum albumin (P02769 25-607): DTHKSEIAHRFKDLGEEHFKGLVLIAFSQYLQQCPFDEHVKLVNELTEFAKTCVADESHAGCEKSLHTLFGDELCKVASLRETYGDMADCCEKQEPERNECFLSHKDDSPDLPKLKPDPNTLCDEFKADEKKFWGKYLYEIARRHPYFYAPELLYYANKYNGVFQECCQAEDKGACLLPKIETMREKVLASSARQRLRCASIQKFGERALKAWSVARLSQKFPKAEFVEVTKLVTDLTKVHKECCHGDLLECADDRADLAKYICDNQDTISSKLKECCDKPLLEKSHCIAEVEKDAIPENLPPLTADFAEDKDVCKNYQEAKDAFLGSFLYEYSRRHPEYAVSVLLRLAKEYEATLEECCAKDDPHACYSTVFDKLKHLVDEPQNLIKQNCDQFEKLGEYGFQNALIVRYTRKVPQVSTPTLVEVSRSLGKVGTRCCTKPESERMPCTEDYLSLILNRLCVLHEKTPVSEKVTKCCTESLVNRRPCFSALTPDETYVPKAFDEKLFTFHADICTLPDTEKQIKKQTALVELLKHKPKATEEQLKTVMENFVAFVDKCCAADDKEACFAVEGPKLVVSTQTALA

As a reminder, the IC50 is the midpoint of a concentration-inhibition curve. Low values mean higher potency, high ones lower potency. With `O=C(O)c1cc(Br)cc2c1NCCCC2` [Example 9, 7-Bromo2,3,4,5-tetrahydro-1H-1-benzazepine-9-carboxylic acid], in assay [1] (45 minutes before Evans blue, control 25.77 ± 1.81, *significantly different from control, p < 0.01), the “Dye leakage (mean ± S.E)” value turned out to be 17.43 ± 1.38 µg/mL. For the same compound, in assay [1], the “Inhibition (%)” value turned out to be 32.3%. Further, in assay [2], it took 132 µM to reach half-maximal inhibition (IC50).
For the compound `O=C(O)c1cc2c(c(C(=O)O)c1)NCCCC2` [Example 12, 2,3,4,5-Tetrahydro-1H-1-benzazepine-7,9-di-carboxylic acid], the inhibition at 25 µg/mL in assay [3] came to 84%.
Same read-out and setting: the result for `CC(C)Oc1ccc2c(=O)c(-c3ccccc3)coc2c1` [Ipriflavone, 7-isopropoxy isoflavone, reference compound] reads 58%.
In assay [2], `O=C(O)c1cc([N+](=O)[O-])cc2c1NCCCC2` [Example 10, 7-Nitro-2,3,4,5-tetrahydro-1H-1-benzazepine-9-carboxylic acid] showed an IC50 of 71 µM.
Regarding `N#Cc1cc2c(c(C(=O)O)c1)NCCCC2` [Example 11 c), 7-Cyano-2,3,4,5-tetrahydro-1H-1-benzazepine-9-carboxylic acid], in assay [3], the inhibition at 25 µg/mL was 54%.
